Data published in the supplement of paper PMC10883282.
Where a name gives a salt, the structure may show the parent alone. ± gives the standard deviation of the averaged measurements.

Test system: SW1353
Test: relative viability vs DMSO control (72 h) (fraction); higher = more viable cells
Outline: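 Percent growth from ATPLite readings, averaged over up to triplicate wells, was used as relative viability. Sarcoma cell lines were seeded into 384-well plates for 80–90% confluence, dosed after 24 h, and kept 72 h at 37 °C, 5% CO2. Data were rescaled to a range where 1 is full and 0 is none.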

Structure (SMILES)	relative viability (0.00017 µM)	relative viability (0.00051 µM)	relative viability (0.00152 µM)	relative viability (0.00457 µM)	relative viability (0.01372 µM)	relative viability (0.04115 µM)	relative viability (0.1235 µM)	relative viability (0.3704 µM)	relative viability (1.111 µM)	relative viability (3.333 µM)	relative viability (10 µM)
C[C@@H]1COCCN1c1cc(-c2ccnn2C)c2ccnc(-c3ccn[nH]3)c2n1	0.988 ± 0.026	0.94 ± 0.015	0.974 ± 0.035	0.978 ± 0.065	0.933 ± 0.059	0.872 ± 0.028	0.769 ± 0.026	0.624 ± 0.027	0.507 ± 0.0081	0.41 ± 0.005	0.392 ± 0.014
CCN1CCN(Cc2ccc(Nc3ncc(F)c(-c4cc(F)c5nc(C)n(C(C)C)c5c4)n3)nc2)CC1 [Abemaciclib]	0.958 ± 0.031	0.974 ± 0.017	0.976 ± 0.021	0.944 ± 0.011	0.9333 ± 0.0082	0.884 ± 0.033	0.778 ± 0.023	0.74 ± 0.021	0.699 ± 0.024	0.73 ± 0.046	0.721 ± 0.047
CCc1cc2c(cc1N1CCC(N3CCOCC3)CC1)C(C)(C)c1[nH]c3cc(C#N)ccc3c1C2=O [Alectinib]	0.987 ± 0.02	0.993 ± 0.027	1.01 ± 0.019	1.002 ± 0.0077	0.996 ± 0.038	1.04 ± 0.012	0.988 ± 0.057	1.07 ± 0.032	0.9953 ± 0.0051	1.06 ± 0.058	1.14 ± 0.016
Cc1nc(NC(=O)N2CCC[C@H]2C(N)=O)sc1-c1ccnc(C(C)(C)C(F)(F)F)c1 [Alpelisib]	1.02 ± 0.034	1 ± 0.024	1.01 ± 0.011	0.973 ± 0.028	0.977 ± 0.072	0.902 ± 0.027	0.9309 ± 0.0035	0.903 ± 0.039	0.819 ± 0.061	0.731 ± 0.024	0.594 ± 0.037
Cn1cc(-c2cc3c(N4CCN(c5ncc([C@@](C)(N)c6ccc(F)cc6)cn5)CC4)ncnn3c2)cn1 [Avapritinib]	0.96 ± 0.072	0.905 ± 0.043	0.894 ± 0.057	0.92 ± 0.012	0.894 ± 0.04	0.883 ± 0.051	0.871 ± 0.036	0.819 ± 0.04	0.819 ± 0.02	0.776 ± 0.03	0.715 ± 0.042
CC(C)NC(=O)C1CCC(n2c(NC(=O)c3ccc(F)cc3)nc3ccc(CN4CCC(C(C)(C)O)CC4)cc32)CC1 (stereo not drawn) [Belizatinib]	1.02 ± 0.03	0.987 ± 0.045	1.02 ± 0.014	1.05 ± 0.062	1.03 ± 0.015	1.03 ± 0.03	0.944 ± 0.012	0.929 ± 0.022	0.808 ± 0.03	0.648 ± 0.021	0.441 ± 0.024
Cn1cnc2c(F)c(Nc3ccc(Br)cc3F)c(C(=O)NOCCO)cc21 [Binimetinib]	1.06 ± 0.021	1.08 ± 0.032	1.04 ± 0.019	0.993 ± 0.018	0.981 ± 0.038	0.889 ± 0.065	0.841 ± 0.092	0.832 ± 0.019	0.806 ± 0.019	0.739 ± 0.026	0.661 ± 0.013
Nc1cc(C(F)(F)F)c(-c2cc(N3CCOCC3)nc(N3CCOCC3)n2)cn1 [Buparlisib]	0.984 ± 0.018	0.956 ± 0.011	0.971 ± 0.011	0.982 ± 0.042	0.966 ± 0.059	0.9295 ± 0.0043	0.889 ± 0.03	0.835 ± 0.018	0.654 ± 0.0079	0.381 ± 0.015	0.266 ± 0.0047
CNC(=O)c1ccc(-c2cnc3ncc(Cc4ccc5ncccc5c4)n3n2)cc1F [Capmatinib]	0.958 ± 0.038	0.979 ± 0.033	0.973 ± 0.029	0.986 ± 0.063	0.974 ± 0.019	0.964 ± 0.049	1.01 ± 0.036	0.98 ± 0.044	1.05 ± 0.025	1.07 ± 0.011	1.03 ± 0.018
COc1cc2c(Oc3ccc4[nH]c(C)cc4c3F)ncnc2cc1OCCCN1CCCC1 [Cediranib]	0.971 ± 0.026	0.993 ± 0.025	1.004 ± 0.0039	0.999 ± 0.024	0.954 ± 0.011	0.949 ± 0.016	0.908 ± 0.013	0.848 ± 0.035	0.79 ± 0.034	0.751 ± 0.11	0.0589 ± 0.0064
COc1c(OCCCN2CCOCC2)ccc2c1N=C(NC(=O)c1cnc(N)nc1)N1CCN=C21 [Copanlisib]	1.08 ± 0.053	1.05 ± 0.054	1.01 ± 0.025	0.917 ± 0.011	0.845 ± 0.033	0.743 ± 0.047	0.635 ± 0.045	0.518 ± 0.011	0.441 ± 0.015	0.412 ± 0.03	0.364 ± 0.017
CN1CCN(c2ccc3nc(-c4c(N)c5c(F)cccc5[nH]c4=O)[nH]c3c2)CC1 [Dovitinib]	1.08 ± 0.036	1.09 ± 0.015	1.04 ± 0.04	1.07 ± 0.019	1.06 ± 0.014	1.01 ± 0.03	1.01 ± 0.048	0.959 ± 0.036	0.749 ± 0.017	0.53 ± 0.043	0.06 ± 0.0053
COc1cccc2c1C(=O)c1c(O)c3c(c(O)c1C2=O)C[C@@](O)(C(=O)CO)C[C@@H]3O[C@H]1C[C@H](N)[C@H](O)[C@H](C)O1 [Doxorubicin Hydrochloride]	0.948 ± 0.043	0.971 ± 0.029	0.958 ± 0.022	0.949 ± 0.013	0.882 ± 0.043	0.81 ± 0.013	0.661 ± 0.029	0.376 ± 0.017	0.162 ± 0.0035	0.181 ± 0.011	0.115 ± 0.0047
Cc1cnc(Nc2ccc(OCCN3CCCC3)cc2)nc1Nc1cccc(S(=O)(=O)NC(C)(C)C)c1 [Fedratinib]	1.058 ± 0.01	1.02 ± 0.05	1.03 ± 0.038	1.02 ± 0.016	0.987 ± 0.048	1 ± 0.046	0.915 ± 0.018	0.764 ± 0.036	0.533 ± 0.022	0.184 ± 0.0053	0.00437 ± 0.0012
C=CC(=O)N1CCC[C@@H](n2nc(-c3ccc(Oc4ccccc4)cc3)c3c(N)ncnc32)C1 [Ibrutinib]	1.03 ± 0.041	1.04 ± 0.028	1 ± 0.032	1.013 ± 0.0014	0.947 ± 0.03	0.945 ± 0.011	0.854 ± 0.05	0.821 ± 0.012	0.746 ± 0.043	0.647 ± 0.014	0.412 ± 0.021
CC[C@H](Nc1ncnc2[nH]cnc12)c1nc2cccc(F)c2c(=O)n1-c1ccccc1 [Idelalisib]	1.06 ± 0.038	1.05 ± 0.053	1.04 ± 0.048	1.05 ± 0.02	1.01 ± 0.043	0.969 ± 0.016	0.952 ± 0.045	0.931 ± 0.043	0.831 ± 0.042	0.752 ± 0.011	0.573 ± 0.027
O=C(Cc1ccc(-c2ccc(OCCN3CCOCC3)cc2)cn1)NCc1ccccc1 [KX2-391]	1.06 ± 0.023	1.09 ± 0.031	1.02 ± 0.014	1.01 ± 0.035	0.962 ± 0.01	0.952 ± 0.011	0.607 ± 0.037	0.446 ± 0.024	0.425 ± 0.018	0.462 ± 0.014	0.458 ± 0.019
O=C(Nc1cnn2ccc(N3CCC[C@@H]3c3cc(F)ccc3F)nc12)N1CC[C@H](O)C1 [Larotrectinib]	1.07 ± 0.043	1.07 ± 0.027	1 ± 0.033	1.01 ± 0.057	1.03 ± 0.034	0.954 ± 0.026	0.99 ± 0.025	0.9488 ± 0.0041	0.984 ± 0.053	0.979 ± 0.025	0.921 ± 0.047
